The NIST ThermoML archive (doi:10.1016/j.jct.2015.10.001)
± gives the expanded uncertainty stated by the source.

Key:
[1] = 101.33 kPa, Liquid; for electrical conductivity: Direct current cell with electrodes; for mass density: Vibrating tube method
[2] = mn = molality of the nth substance listed, in mol/kg; conditions: 100 kPa, Liquid, Capillary tube (Ostwald / Ubbelohde) method, m2 = 0

CCCCn1cc[n+](C)c1.O=C([O-])c1ccccc1O [1-butyl-3-methylimidazolium salicylate]
viscosity ([1]; 293.15 K, Cone and plate viscometry): 1194.1 ± 80 mPa·s
electrical conductivity ([1]; 293.15 K): 0.0182 ± 0.0006 S/m
mass density ([1]; 293.15 K): 1152.27 ± 4.6 kg/m3
viscosity ([1]; 298.15 K, Cone and plate viscometry): 777.63 ± 46 mPa·s
electrical conductivity ([1]; 298.15 K): 0.0281 ± 0.0008 S/m
mass density ([1]; 298.15 K): 1149.05 ± 4.5 kg/m3
viscosity ([1]; 303.15 K, Cone and plate viscometry): 501.42 ± 26 mPa·s
electrical conductivity ([1]; 303.15 K): 0.0447 ± 0.0013 S/m
mass density ([1]; 303.15 K): 1145.65 ± 4.5 kg/m3
viscosity ([1]; 308.15 K, Cone and plate viscometry): 338.14 ± 15 mPa·s
electrical conductivity ([1]; 308.15 K): 0.0692 ± 0.0021 S/m
mass density ([1]; 308.15 K): 1142.22 ± 4.5 kg/m3
viscosity ([1]; 313.15 K, Cone and plate viscometry): 240 ± 9.8 mPa·s
electrical conductivity ([1]; 313.15 K): 0.0965 ± 0.0029 S/m
mass density ([1]; 313.15 K): 1138.76 ± 4.5 kg/m3
viscosity ([1]; 318.15 K, Cone and plate viscometry): 167.97 ± 6.1 mPa·s
electrical conductivity ([1]; 318.15 K): 0.156 ± 0.0047 S/m
viscosity ([1]; 323.15 K, Cone and plate viscometry): 127.06 ± 4.2 mPa·s
electrical conductivity ([1]; 323.15 K): 0.22 ± 0.0066 S/m

O [water]
viscosity ([1]; 293.15 K, Capillary tube (Ostwald / Ubbelohde) method): 1.003 ± 0.021 mPa·s
viscosity ([1]; 298.15 K, Capillary tube (Ostwald / Ubbelohde) method): 0.89 ± 0.019 mPa·s
viscosity ([1]; 303.15 K, Capillary tube (Ostwald / Ubbelohde) method): 0.797 ± 0.017 mPa·s
viscosity ([1]; 308.15 K, Capillary tube (Ostwald / Ubbelohde) method): 0.719 ± 0.015 mPa·s
viscosity ([1]; 313.15 K, Capillary tube (Ostwald / Ubbelohde) method): 0.653 ± 0.014 mPa·s

O [water] + CCCCn1cc[n+](C)c1.O=C([O-])c1ccccc1O
viscosity ([2]; 293.15 K): 1.003 ± 0.021 mPa·s
viscosity ([2]; 298.15 K): 0.89 ± 0.019 mPa·s
viscosity ([2]; 303.15 K): 0.797 ± 0.017 mPa·s
viscosity ([2]; 308.15 K): 0.719 ± 0.015 mPa·s
viscosity ([2]; 313.15 K): 0.653 ± 0.014 mPa·s
